# Laboratory results reported in patent publication US8247170B2, “Detection of penicillin tolerance in Group B Streptococcus: single nucleotide polymorphisms in penicillin binding protein 4” (priority 2008, dated 2012).
# Tested on: GBS clinical isolates and laboratory strains
# Assay: Macrobroth penicillin tolerance assay
# Assay type: cell-based, Group B Streptococcus
# Conditions: then 24 h drug-free; for 10xMIC, regrowth O.D.600: Penicillin G 10×MIC90 48 h; for 30xMIC, regrowth O.D.600: Penicillin G 30×MIC90 48 h; for 100xMIC, regrowth O.D.600: Penicillin G 100×MIC90 48 h; for 300xMIC, regrowth O.D.600: Penicillin G 300×MIC90 48 h
# Method: Using this modified penicillin tolerance assay, tolerant strains from the GBS clinical isolates can be more efficiently identified. In this macrobroth culture format, 25 ml THB broth GBS cultures (containing clinical isolates) were grown to an early exponential growth phase (˜0.2 OD600). Cell cultures (6 ml) were collected and divided into 4 culture tubes. […] Cell cultures were shaken at 150 rpm in order to maintain cells in suspension for proper growth. Subcultures (1/20 dilution) of cells were put into fresh THB containing […] Penase (i.e., 100 μl of Penase 10,000 U stock into 4 ml THB culture). Subcultures were allowed to grow for 24 hours at 37° C. Cell growth was monitored by OD (see Example 2).
# (I) Bacterial Strains and Culture Conditions. GBS strains A909 (serotype IA), 515 (serotype IA), NEM316 (serotype III), COHI (serotype III), 2603V/R (serotype V) and O90R (non-typable) were used in this study. E. coli Top10 cells were used for the recombination experiments. GBS was cultured in Todd Hewitt broth (THB) or Tryptic Soy 5% sheep blood (TS) media and E. coli in Luria-broth (LB) medium or agar. Antibiotics were used at the following concentrations: for GBS—penicillin G (MIC90 0.06 μg ml^−1), ampicillin (MIC90 0.12 μg ml^−1), vancomycin (MIC90 2 μg ml^−1), cefazolin (MIC90 1 μg ml^−1) and chloramphenicol (5 μg ml^−1); for E. coli—ampicillin (50 μg ml^−1) and chloramphenicol (5 μg ml^−1). Both GBS and E. coli cultures were grown at 37° C. (II) Tolerance Using the MBC:MIC Ratio Method. Three GBS laboratory strains (i.e., A909, NEM316, and O90R) were cultured overnight for 18 h at 37° C. in THB. Subcultures in THB were subsequently grown to exponential phase (OD600˜0.3; i.e. 5×10^5 cfu/ml) at 37° C. Cell cultures were then exposed to different concentrations of antibiotics (Penicillin G, Ampicillin, Cefozolin or Vancomycin). […] Cell cultures were dispersed every 18 h before OD600 was measured to determine the lowest concentration of antibiotic with 90% growth inhibition (MIC90). Antibiotic treated cells (8 μl) from each well were re-suspended into PBS (100 μl) and plated (54 μl) on TS agar plates and allowed to grow for an additional 24 h at 37° C. Cell count was performed to determine the lowest concentration of antibiotic with 90% killing of original inoculums (MBC90). (III) Penicillin Killing and Regrowth Tolerance Assay by Microbroth Dilution. Three GBS laboratory strains (i.e., A909, NEM316, and O90R) were cultured overnight for 18 h at 37° C. in THB. Subcultures in THB were subsequently grown to exponential phase (OD600˜0.3) at 37° C. Cell cultures were then exposed to different concentrations of Penicillin G (Sigma, St. Louis, Mo.). […] Cell cultures were dispersed. A 1:20 dilution of cells was re-plated into new wells containing fresh THB with 500 U Penase (to degrade residual penicillin). Cell cultures were allowed to re-grow for an additional 24 h at 37° C. before the OD600 was measured. (IV) Measuring Cell Viability by Determining ATP Concentration. GBS strains were cultured for 18 h at 37° C. in THB. These cells were inoculated into fresh THB and subsequently allowed to grow to exponential phase (OD600 0.25-0.3) at 37° C. One ml of each culture was centrifuged at 5,000×g for 4 min. The cell pellet was re-suspended in ATP-free water. Cellular ATP was extracted using trichloroacetic acid (TCA) (5%) for 2 min and subsequently neutralized with Tris-EDTA-0.1M NaOAc, pH 7.75 to 10×TCA volume. The initial (in.) cellular ATP concentration ([ATP]) was measured using the ENLITEN (Promega) luciferase based reaction kit. THB cultures were then treated with 100×MIC90 Penicillin G for 22 h. The experimental (exp.) cellular ATP was extracted and the concentration was measured as stated above. Based on the calculations ([ATP] exp.)/([ATP] in./O.D. in.), differences in viability were equated with the change in [ATP]. (V) Measuring Penicillin Induced Lysis. Three GBS laboratory strains (A909, NEM316, and O90R) were cultured for 18 h at 37° C. in THB. […]
compound,measurement,setting,value
CC1(C)S[C@@H]2[C@H](NC(=O)Cc3ccccc3)C(=O)N2[C@H]1C(=O)O [Penicillin G],"10xMIC, regrowth O.D.600",GBS strain 308 (V),−− (“−−” indicates an O.D.600 of 0.001 to 0.099)
same,"30xMIC, regrowth O.D.600",GBS strain 308 (V),−− (“−−” indicates an O.D.600 of 0.001 to 0.099)
same,"100xMIC, regrowth O.D.600",GBS strain 308 (V),−− (“−−” indicates an O.D.600 of 0.001 to 0.099)
same,"300xMIC, regrowth O.D.600",GBS strain 308 (V),−− (“−−” indicates an O.D.600 of 0.001 to 0.099)
same,"10xMIC, regrowth O.D.600",GBS strain 311 (Ib),−− (“−−” indicates an O.D.600 of 0.001 to 0.099)
same,"30xMIC, regrowth O.D.600",GBS strain 311 (Ib),−− (“−−” indicates an O.D.600 of 0.001 to 0.099)
same,"100xMIC, regrowth O.D.600",GBS strain 311 (Ib),+ (“+” indicates an O.D.600 of 0.100 to 0.250)
same,"300xMIC, regrowth O.D.600",GBS strain 311 (Ib),+ (“+” indicates an O.D.600 of 0.100 to 0.250)
same,"10xMIC, regrowth O.D.600",GBS strain 316 (V),−− (“−−” indicates an O.D.600 of 0.001 to 0.099)
same,"30xMIC, regrowth O.D.600",GBS strain 316 (V),−− (“−−” indicates an O.D.600 of 0.001 to 0.099)
same,"100xMIC, regrowth O.D.600",GBS strain 316 (V),−− (“−−” indicates an O.D.600 of 0.001 to 0.099)
same,"300xMIC, regrowth O.D.600",GBS strain 316 (V),−− (“−−” indicates an O.D.600 of 0.001 to 0.099)
same,"10xMIC, regrowth O.D.600",GBS strain 320 (III),+++ (“+++” indicates an O.D.600 of 0.751 to 1.500)
same,"30xMIC, regrowth O.D.600",GBS strain 320 (III),+++ (“+++” indicates an O.D.600 of 0.751 to 1.500)
same,"100xMIC, regrowth O.D.600",GBS strain 320 (III),+++ (“+++” indicates an O.D.600 of 0.751 to 1.500)
same,"300xMIC, regrowth O.D.600",GBS strain 320 (III),+++ (“+++” indicates an O.D.600 of 0.751 to 1.500)
same,"10xMIC, regrowth O.D.600",GBS strain 357 (NT),−− (“−−” indicates an O.D.600 of 0.001 to 0.099)
same,"30xMIC, regrowth O.D.600",GBS strain 357 (NT),−− (“−−” indicates an O.D.600 of 0.001 to 0.099)
same,"100xMIC, regrowth O.D.600",GBS strain 357 (NT),+++ (“+++” indicates an O.D.600 of 0.751 to 1.500)
same,"300xMIC, regrowth O.D.600",GBS strain 357 (NT),++ (“++” indicates an O.D.600 of 0.251 to 0.750)
same,"10xMIC, regrowth O.D.600",GBS strain 359 (V),−− (“−−” indicates an O.D.600 of 0.001 to 0.099)
same,"30xMIC, regrowth O.D.600",GBS strain 359 (V),−− (“−−” indicates an O.D.600 of 0.001 to 0.099)
same,"100xMIC, regrowth O.D.600",GBS strain 359 (V),−− (“−−” indicates an O.D.600 of 0.001 to 0.099)
same,"300xMIC, regrowth O.D.600",GBS strain 359 (V),−− (“−−” indicates an O.D.600 of 0.001 to 0.099)
same,"10xMIC, regrowth O.D.600",GBS strain 367 (V),−− (“−−” indicates an O.D.600 of 0.001 to 0.099)
same,"30xMIC, regrowth O.D.600",GBS strain 367 (V),−− (“−−” indicates an O.D.600 of 0.001 to 0.099)
same,"100xMIC, regrowth O.D.600",GBS strain 367 (V),−− (“−−” indicates an O.D.600 of 0.001 to 0.099)
same,"300xMIC, regrowth O.D.600",GBS strain 367 (V),−− (“−−” indicates an O.D.600 of 0.001 to 0.099)
same,"10xMIC, regrowth O.D.600",GBS strain 377 (V),−− (“−−” indicates an O.D.600 of 0.001 to 0.099)
same,"30xMIC, regrowth O.D.600",GBS strain 377 (V),−− (“−−” indicates an O.D.600 of 0.001 to 0.099)
same,"100xMIC, regrowth O.D.600",GBS strain 377 (V),−− (“−−” indicates an O.D.600 of 0.001 to 0.099)
same,"300xMIC, regrowth O.D.600",GBS strain 377 (V),−− (“−−” indicates an O.D.600 of 0.001 to 0.099)
same,"10xMIC, regrowth O.D.600",GBS strain 378 (NT),−− (“−−” indicates an O.D.600 of 0.001 to 0.099)
same,"30xMIC, regrowth O.D.600",GBS strain 378 (NT),−− (“−−” indicates an O.D.600 of 0.001 to 0.099)
same,"100xMIC, regrowth O.D.600",GBS strain 378 (NT),−− (“−−” indicates an O.D.600 of 0.001 to 0.099)
same,"300xMIC, regrowth O.D.600",GBS strain 378 (NT),−− (“−−” indicates an O.D.600 of 0.001 to 0.099)
same,"10xMIC, regrowth O.D.600",GBS strain 379 (V),−− (“−−” indicates an O.D.600 of 0.001 to 0.099)
same,"30xMIC, regrowth O.D.600",GBS strain 379 (V),−− (“−−” indicates an O.D.600 of 0.001 to 0.099)
same,"100xMIC, regrowth O.D.600",GBS strain 379 (V),−− (“−−” indicates an O.D.600 of 0.001 to 0.099)
same,"300xMIC, regrowth O.D.600",GBS strain 379 (V),−− (“−−” indicates an O.D.600 of 0.001 to 0.099)
same,"10xMIC, regrowth O.D.600",GBS strain 380 (NT),−− (“−−” indicates an O.D.600 of 0.001 to 0.099)
same,"30xMIC, regrowth O.D.600",GBS strain 380 (NT),−− (“−−” indicates an O.D.600 of 0.001 to 0.099)
same,"100xMIC, regrowth O.D.600",GBS strain 380 (NT),+++ (“+++” indicates an O.D.600 of 0.751 to 1.500)
same,"300xMIC, regrowth O.D.600",GBS strain 380 (NT),+ (“+” indicates an O.D.600 of 0.100 to 0.250)
same,"10xMIC, regrowth O.D.600",GBS strain 388 (NT),−− (“−−” indicates an O.D.600 of 0.001 to 0.099)
same,"30xMIC, regrowth O.D.600",GBS strain 388 (NT),−− (“−−” indicates an O.D.600 of 0.001 to 0.099)
same,"100xMIC, regrowth O.D.600",GBS strain 388 (NT),−− (“−−” indicates an O.D.600 of 0.001 to 0.099)
same,"300xMIC, regrowth O.D.600",GBS strain 388 (NT),−− (“−−” indicates an O.D.600 of 0.001 to 0.099)
same,"10xMIC, regrowth O.D.600",GBS strain 389 (Ia),++ (“++” indicates an O.D.600 of 0.251 to 0.750)
same,"30xMIC, regrowth O.D.600",GBS strain 389 (Ia),+++ (“+++” indicates an O.D.600 of 0.751 to 1.500)
same,"100xMIC, regrowth O.D.600",GBS strain 389 (Ia),+++ (“+++” indicates an O.D.600 of 0.751 to 1.500)
same,"300xMIC, regrowth O.D.600",GBS strain 389 (Ia),+++ (“+++” indicates an O.D.600 of 0.751 to 1.500)
same,"10xMIC, regrowth O.D.600",GBS strain 391 (NT),++ (“++” indicates an O.D.600 of 0.251 to 0.750)
same,"30xMIC, regrowth O.D.600",GBS strain 391 (NT),++ (“++” indicates an O.D.600 of 0.251 to 0.750)
same,"100xMIC, regrowth O.D.600",GBS strain 391 (NT),++ (“++” indicates an O.D.600 of 0.251 to 0.750)
same,"300xMIC, regrowth O.D.600",GBS strain 391 (NT),++ (“++” indicates an O.D.600 of 0.251 to 0.750)
same,"10xMIC, regrowth O.D.600",GBS strain 399 (V),−− (“−−” indicates an O.D.600 of 0.001 to 0.099)
same,"30xMIC, regrowth O.D.600",GBS strain 399 (V),+ (“+” indicates an O.D.600 of 0.100 to 0.250)
same,"100xMIC, regrowth O.D.600",GBS strain 399 (V),+ (“+” indicates an O.D.600 of 0.100 to 0.250)
same,"300xMIC, regrowth O.D.600",GBS strain 399 (V),+ (“+” indicates an O.D.600 of 0.100 to 0.250)
